Experiments:
IMR-32 cells = test: Cell viability / proliferation (trypan blue, viable cell count) in neuroblastoma cells; format: cell-based, human; conditions: 5 and 10 µM
Method: Moreover, we treated neuroblastoma IMR-32 cells with the remaining PROTACs and counted the resulting viable cells. We quantified the percentage of dead cells as shown in (Figure 5B,C). In addition, cell proliferation was assessed via counting of viable cells (Figure 5D,E). […] As reference, the HDAC8 inhibitor PCI-34501 was used.
Adherent cells were detached using trypsin–EDTA (ThermoFisher Scientific, Bremen, Germany) and pooled with corresponding supernatant, centrifuged, and resuspended in 1 mL of cell culture medium. Cell viability (viable cell number, % viability, % dead cells) was measured by automated trypan blue staining using the Vi-Cell XR Cell Viability Analyzer (Beckman Coulter, Krefeld, Germany).
Figure 5 (A) Neuroblastoma SK-N-BE(2)-C cells; Colony Assay, 10 days (compound treatment within first 96 h). Stained with crystal violet and quantified with ImageJ. (B,C) Trypan Blue assay for detection of dead cells. Neuroblastoma IMR-32 cells were either treated with 5 µM (B) or 10 µM (C). (D,E) Cell proliferation assessed via counting of viable cells. IMR-32 cells were either treated with 5 µM (D) or 10 µM (E) PROTACs. HDAC8i PCI-34501 served as a positive control, untreated (MEM) and solvent (DMSO) treated cells served as negative controls.

HDAC8 = target: T1, HDAC8 (Homo sapiens, UniProt Q9BY41); test: HDAC8 degradation in SK-N-BE(2)-C neuroblastoma cells (Western blot); format: cell-based; set-up: endogenous in cells; host or cells: SK-N-BE(2)-C; conditions: SK-N-BE(2)-C cells; for HDAC8 degradation: up to 10 µM, Western blot
T1 sequence (Q9BY41 1-377): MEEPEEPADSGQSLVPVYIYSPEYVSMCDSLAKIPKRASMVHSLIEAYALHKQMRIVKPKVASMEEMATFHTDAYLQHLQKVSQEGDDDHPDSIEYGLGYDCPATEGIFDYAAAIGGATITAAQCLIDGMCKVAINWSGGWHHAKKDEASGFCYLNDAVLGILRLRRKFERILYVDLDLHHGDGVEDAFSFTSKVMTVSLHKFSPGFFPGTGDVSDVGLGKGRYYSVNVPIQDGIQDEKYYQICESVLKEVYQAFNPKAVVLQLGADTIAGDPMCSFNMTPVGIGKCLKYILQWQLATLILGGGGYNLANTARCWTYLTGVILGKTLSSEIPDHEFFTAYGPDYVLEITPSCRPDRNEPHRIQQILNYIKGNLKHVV
Method: Whole cell lysates from treated SK-N-BE(2)-C neuroblastoma cells were taken and the protein levels for HDAC8 and the acetylation of its substrate SMC3 were determined (Figure 6). As a control for HDAC6, we also assessed acetylation levels of α-tubulin. […] Western blot analysis was performed as described previously (Kolbinger et al.).
(§1) Figure 6 (A) SK-N-BE(2)-C neuroblastoma cells were treated for indicated time points with 10 µM of PROTACs. Degradation of HDAC8 and acetylation of HDAC8 target was analyzed via Western blot. (B) SK-N-BE(2)-C neuroblastoma cells were treated for 6 h with indicated concentrations of HyT_1p, CRBN_1b and HyT_1m. Acetylation of HDAC8 target SMC3 and HDAC6 target tubulin, as well as total HDAC8 levels, were assessed by Western blot. Quantified ac-SMC3 or ac-tubulin expression, respectively, was normalized to the respective tubulin loading control and to the solvent control (DMSO). This quantification is reflected by the numbers below each blot. […] Total HDAC6, total HDAC1, total HDAC8, and acetyl-histone H4 expression levels, were assessed by Western blot. Total GAPDH protein levels served as a loading control (LC). * unspecific bands obtained through reprobing of the membrane.

acetylated SMC3 = test: Acetylation of HDAC8 substrate SMC3 in SK-N-BE(2)-C cells (Western blot); format: cell-based, human; conditions: 10 µM
Method: To test the degradation of HDAC8 with the developed PROTACs, we selected the most promising compounds obtained from the cellular neuroblastoma testing; namely CRBN_1b, CRBN_1d, CRBN_1e, HyT_1m, and HyT_1p. Whole cell lysates from treated SK-N-BE(2)-C neuroblastoma cells were taken and the protein levels for HDAC8 and the acetylation of its substrate SMC3 were determined (Figure 6). As a control for HDAC6, we also assessed acetylation levels of α-tubulin. […]. A clear dose-dependent degradation of HDAC8 by PROTAC CRBN_1e was observed (Figure 6C). After 48 h, the HDAC8 protein level was back to baseline, presumably due to de novo protein synthesis. […]. Western blot analysis was performed as described previously (Kolbinger et al.). […]
as §1, with “(B) SK-N-BE(2)-C neuroblastoma cells were treated for 6 h with indicated concentrations of HyT_1p, CRBN_1b and HyT_1m.” left out, “Total GAPDH protein levels served as a loading control (LC). * unspecific bands obtained through reprobing of the membrane.” left out

| SMILES | Effect in cell proliferation assay (viable cell count) (IMR-32 cells) | Remaining HDAC8 protein (HDAC8; 6 h, 10 µM) | HDAC8 degradation (HDAC8) | Hyperacetylation of HDAC8 substrate SMC3 (acetylated SMC3) |
| --- | --- | --- | --- | --- |
| COc1ccc(C(=O)NO)cc1NC(=O)c1ccc(NC(=O)CCCCCCCNc2cccc3c2C(=O)N(C2CCC(=O)NC2=O)C3=O)cc1 (stereo not shown) [CRBN_1b] | strongest effect | 40% | strong HDAC8 degradation |  |
| COC(=O)c1ccc(C)c(NCc2ccc(OCc3cn(CCCCCC(=O)Nc4cccc5c4C(=O)N(C4CCC(=O)NC4=O)C5=O)nn3)cc2)c1 (stereo not shown) [33a] |  |  | did not show hyperacetylation of SMC3 or HDAC8 degradation | did not show hyperacetylation |
| O=C(COc1ccc(CNc2cc(C(=O)NO)ccc2Cl)cc1)NCCCCCNC(=O)CC12CC3CC(CC(C3)C1)C2 [HyT_1p] | strongest effect |  | failed to degrade HDAC8 |  |
